Where a name gives a salt, the structure may show the parent alone. A value given as a limit tells only on which side of the number the result lay.

Usually IC50 stands for the point on the concentration scale where inhibition reaches its midpoint.

T1 sequence (Q9NYA1 whole entry): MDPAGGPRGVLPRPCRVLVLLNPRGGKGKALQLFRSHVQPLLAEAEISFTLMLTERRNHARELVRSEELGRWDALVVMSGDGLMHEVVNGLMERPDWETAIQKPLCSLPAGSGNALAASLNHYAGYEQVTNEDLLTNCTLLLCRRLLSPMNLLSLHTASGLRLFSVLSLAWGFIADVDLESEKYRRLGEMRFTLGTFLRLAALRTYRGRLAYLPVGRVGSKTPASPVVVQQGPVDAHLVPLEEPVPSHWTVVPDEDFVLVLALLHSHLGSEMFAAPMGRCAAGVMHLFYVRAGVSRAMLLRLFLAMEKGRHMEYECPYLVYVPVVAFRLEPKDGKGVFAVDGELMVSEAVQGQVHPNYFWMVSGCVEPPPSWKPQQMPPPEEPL

The test addresses T1, SPHK-1 (Homo sapiens, UniProt Q9NYA1).
T1 construct: purchased BPS Bioscience
Nature of the test: Reporter Assay: sphingosine kinase conversion of fluorescein-labeled sphingosine, read on Lab Chip 3000. It is filed as biochemical. The settings on record: 2 μM Fl-sphingosine, 25 μM ATP, 300 ng/ml SK1, 1 hour at room temperature; from percent conversion of substrate to product; read-out: SPHK-1 IC50 (n =). How it is done:
Sphingosine kinase is a 49 kDa enzyme that catalyzes the formation of sphingosine-1-phosphate (S-1-P) from sphingosine.
Fluorescein labeled sphingosine was obtained from Echelon Biosciences (S-100F). Buffer reagents (1 M Hepes, 10 triton x-100, 100% glycerol, dithiothreitol 1 M MgCl2, ATP, 500 mM EDTA and DMSO) were purchased from Sigma. Coating reagent (CR-3), was obtained from Caliper Life Sciences.
0.05% Triton X-100, 2.5% glycerol, 0.1% CR-3, and 0,6% DMSO. Termination butler included 100 mM Hepes (pH 7.5), 40 mM EDTA, 0.05% Triton X-100, 2.5% glycerol, 0.3% CR-3, and 0.6% DMSO.
All assay components were made in reaction buffer. […] The assaylvas allowed to incubate at room temperature sealed and protected from light for 1 hour.
After 1 hour, 10 μl of termination buffer was added to terminate, the reaction, and the plate was read on a Lab Chip 3000. The plate was read for one cycle. The Lab Chip separated substrate and product based on charge.
Results were calculated based on percent conversion of substrate to product using the following formula: […]
Percent inhibition and IC50's for compounds of the invention were determined using the percent conversion values obtained horn the Lab Chip.
On to `CCCCCCC(O)CCCc1ccc(NC(=O)[C@@H](N)[C@@H](C)O)cc1` (stereo partly drawn) [Example 35, (2S,3R)-2-amino-3-hydroxy-N-(4-(4-hydroxydecyl)phenyl) butanamide], for which the IC50 was 6900 nM.

As to `CCCCCCCCc1cc2cc(CNC(=O)[C@H]3NCC[C@@H]3O)ccc2n1C` [Example 109, (2S,3S)-3-Hydroxy-N-((1-methyl-2-octyl-1H-indol-5-yl)methyl)pyrrolidine-2-carboxamide], the IC50 was 300 nM.

As for `C[C@H](NC(=O)[C@H]1NCC[C@@H]1O)c1ccc(-c2noc(CCC3CCC3)n2)cc1` [Example 100, (2S,3S)—N—((S)-1-(4-(5-(2-Cyclobutylethyl)-1,2,4-oxadiazol-3-yl)phenyl)ethyl)-3-hydroxypyrrolidine-2-carboxamide hemi tartrate salt], the IC50 was determined as 59 nM.

As for `CCCCCCCc1nc(-c2ccc3c(c2)CC[C@H]3NC(=O)[C@H]2NCC[C@@H]2O)no1` [Example 61], the IC50 is 6900 nM.

Regarding `CC[C@H](NC(=O)[C@H]1NCC[C@@H]1O)c1ccc(-n2cc(CCc3ccccc3)nn2)cc1` [Example 66, (2S,3S)-3-Hydroxy-N—((S)-1-(4-(4-phenethyl-1H-1,2,3-triazol-1-yl)phenyl)propyl)pyrrolidine-2-carboxamide], the IC50 is 140 nM.

In the case of `CCCCCCCCc1ccc(NC(=O)[C@@H](N)CCCCO)cc1` [Example 52, (S)-2-Amino-6-hydroxy-N-(4-octylphenyl) hexanamide], the IC50 worked out at 4000 nM.

`CCCCCCCCCCc1ccc(NC(=O)[C@@H]2C[C@@H](O)CCN2)cc1` [Example 124, (2S,4S)—N-(4-decylphenyl)-4-hydroxypiperidine-2-carboxamide]: the IC50 came out at 2700 nM.

Take `CCCCCCCc1noc(-c2ccc(CNC(=O)[C@@H]3C[C@@H](O)CCN3)cc2)n1` [Example 102, (2S,4S)—N-(4-(3-heptyl-1,2,4-oxadiazol-5-yl)benzyl)-4-hydroxypiperidine-2-carboxamide]: the IC50 is 2700 nM.

For `O=C(NCc1ccc2oc(CCOc3ccc(F)cc3)cc2c1)[C@H]1NCC[C@@H]1O` [Example 111, (2S,3S)—N-((2-(2-(4-Fluorophenoxy)ethyl)benzofuran-5-yl)methyl)-3-hydroxypyrrolidine-2-carboxamide], the IC50 worked out at 5000 nM.

With `CCCCCCCCc1ccc(NC(=O)[C@H](N)[C@@H](C)O)cc1` [Example 31, (2R,3R)-2-Amino-3-hydroxy-N-(4-octylphenyl) butanamide], the IC50 was determined as 1600 nM.

Turning to `CCCCc1ccc(-c2nc(-c3ccc(CNC(=O)[C@H]4NCC[C@@H]4O)cc3)no2)cc1` [Example 82, (2S,3S)—N-(4-(5-(4-Butylphenyl)-1,2,4-oxadiazol-3-yl)benzyl)-3-hydroxypyrrolidine-2-carboxamide], the IC50 was determined as 3700 nM.

As for `CCCCCCCCCCCc1ccc(NC(=O)[C@@H](N)[C@@H](C)O)cc1` [Example 7, (2S,3R)-2-Amino-3-hydroxy-N-(4-undecylphenyl) butanamide], the IC50 amounted to 110 nM.

Turning to `CCCCCCc1cc2cc(CNC(=O)[C@H]3NCC[C@@H]3O)ccc2o1` [Example 114, (2S,3S)—N-((2-Hexylbenzofuran-5-yl)methyl)-3-hydroxypyrrolidine-2-carboxamide], the IC50 came out at 530 nM.

As to `CCCCCCCCc1cc2ccc(CNC(=O)[C@H]3NCC[C@@H]3O)cc2o1` [Example 112, (2S,3S)-3-Hydroxy-N-((2-octylbenzofuran-6-yl)methyl)pyrrolidine-2-carboxamide], the IC50 stood at 490 nM.

As to `CCCCCCOCc1ccc(NC(=O)[C@H]2NCC[C@@H]2O)cc1` [Example 19, (2S,3S)-N-(4-(Hexyloxy-methyl)phenyl)-3-hydroxy-pyrrolidine-2-carboxamide], the IC50 is 990 nM.

Turning to `CCCCCCCc1ccc(-c2ccc(NC(=O)[C@H]3NCC[C@@H]3O)cc2)nc1` [Example 104, (2S,3S)—N-(4-(5-heptylpyridin-2-yl)phenyl)-3-hydroxypyrrolidine-2-carboxamide], the IC50 came out at 1600 nM.

As for `CCCCCCCCc1cc2cc(CNC(=O)[C@H]3NCC[C@@H]3O)ccc2o1` [Example 107, (2S,3S)-3-Hydroxy-N-((2-octylbenzofuran-5-yl)methyl)pyrrolidine-2-carboxamide], the IC50 was 31 nM.

With `CCCCCCCc1ccc(-c2ccc(NC(=O)[C@@H](N)[C@@H](C)O)cc2)nc1` [Example 101, (2S,3R)-2-amino-N-(4-(5-heptylpyridin-2-yl)phenyl)-3-hydroxybutanamide], the IC50 was determined as 900 nM.

On to `CC[C@H](NC(=O)[C@H]1NCC[C@@H]1O)c1ccc(-c2noc(C3CCCCC3)n2)cc1` [Example 99, (2S,3S)—N—((S)-1-(4-(5-Cyclohexyl-1,2,4-oxadiazol-3-yl)phenyl)propyl)-3-hydroxypyrrolidine-2-carboxamide hemi-tartrate salt], for which the IC50 is 130 nM.

Regarding `O=C(NCc1ccc2oc(CCC3CCCCC3)cc2c1)[C@H]1NCC[C@@H]1O` [Example 117, (2S,3S)—N-((2-(2-Cyclohexylethyl)benzofuran-5-yl)-methyl)-3-hydroxypyrrolidine-2-carboxamide], the IC50 came to 430 nM.

In the case of `CCCCCCCCc1ccc(CNC(=O)[C@H]2NCC[C@@H]2O)cc1` [Example 36, (2S,3S)-3-hydroxy-N-(4-octylbenzyl) pyrrolidine-2-carboxamide], the IC50 was determined as 2100 nM.

As for `CCCCCCCC(O)CCCc1ccc(NC(=O)[C@H]2NCC[C@@H]2O)cc1` (stereo partly drawn) [Example 42, (2S,3S)-3-hydroxy-N-(4-(4-hydroxy-undecyl)phenyl) pyrrolidine-2-carboxamide], the IC50 turned out to be 120 nM.

On to `CCCCC(=O)CCCCCc1ccc(NC(=O)[C@H]2NCC[C@@H]2O)cc1` [Example 38, (2S,3S)-3-hydroxy-N-(4-(6-oxodecyl)phenyl) pyrrolidine-2-carboxamide], for which the IC50 came to 86 nM.

Consider `CCCCCCCCc1ccc(NC(=O)[C@H]([C@H](C)O)N(CCC)CCC)cc1` [Example 47, (2S,3S)-2-(dipropyl-amino)-3-hydroxy-N-(4-octylphenyl) butanamide], for which the IC50 is over 1000 nM.

As for `CCCCCCCCc1cccc(NC(=O)[C@@H](N)[C@@H](C)O)c1` [Example 11, (2S,3R)-2-Amino-3-hydroxy-N-(3-octylphenyl) butanamide], the IC50 is 2900 nM.

For the compound `O=C(NCc1cc(F)c2oc(CC3CCCC3)cc2c1)[C@H]1NCC[C@@H]1O` [Example 120, (2S,3S)—N-((2-(Cyclopentylmethyl)-7-fluorobenzofuran-5-yl)methyl)-3-hydroxypyrrolidine-2-carboxamide], the IC50 was 2300 nM.

Consider `O=C(NCc1ccc2oc(CC3CCCCC3)cc2c1)[C@H]1NCC[C@@H]1O` [Example 116, (2S,3S)—N-((2-(Cyclohexylmethyl)benzofuran-5-yl)methyl)-3-hydroxypyrrolidine-2-carboxamide], for which the IC50 was determined as 110 nM.

Turning to `CCCCCCCCOc1ccc(NC(=O)[C@@H](N)[C@@H](C)O)cc1` [Example 18, (2S,3R)-2-Amino-3-hydroxy-N-(4-(octyloxy)phenyl) butanamide], the IC50 was found to be 460 nM.

As for `CCCCCCCCCCc1ccc(NC(=O)[C@@H](N)[C@@H](C)O)cc1` [Example 6, (2S,3R)-2-Amino-N-(4-decylphenyl)-3-hydroxy-butanamide], the half-inhibitory concentration (IC50) amounted to 46 nM.

As to `CCCCCCCCc1ccc(NC(=O)[C@H]([C@H](C)O)N(Cc2ccccc2)Cc2ccccc2)cc1` [Example 49, (2S,3S)-2-(dibenzyl-amino)-3-hydroxy-N-(4-octylphenyl) butanamide], the IC50 is over 1000 nM.

In the case of `CCCCCCCc1nc(-c2ccc3c(c2)CC[C@@H]3NC(=O)[C@H]2NCC[C@@H]2O)no1` [Example 62, (2S,3S)—N—((S)-5-(5-heptyl-1,2,3-oxadiazol-3-yl)-2,3-dihydro-1H-inden-1-yl)-3-hydroxypyrrolidine-2-carboxamide], the IC50 stood at 60 nM.

Regarding `O=C(NCc1ccc(-n2cc(CCC3CCCCC3)nn2)cc1)[C@H]1NCC[C@@H]1O` [Example 67, (2S,3S)-(4-(4-(2-Cyclohexylethyl)-1H-1,2,3-triazol-1-yl)benzyl)-3-hydroxypyrrolidine-2-carboxamide], the IC50 stood at 290 nM.

On to `CCCCCCCCc1cnc(-c2ccc(CNC(=O)[C@H]3NCC[C@@H]3O)cc2)s1` [Example 106, (2S,3S)-3-hydroxy-N-(4-(5-octylthiazol-2-yl)benzyl)pyrrolidine-2-carboxamide], for which the IC50 was determined as 70 nM.

Consider `O=C(NCc1ccc(-c2noc(C3CCC(F)(F)CC3)n2)cc1)[C@H]1NCC[C@@H]1O` [Example 92, (2S,3S)—N-(4-(5-(4,4-Difluorocyclohexyl)-1,2,4-oxadiazol-3-yl)benzyl)-3-hydroxypyrrolidine-2-carboxamide], for which the IC50 was found to be 6400 nM.

`O=C(NCc1ccc2oc(CCCOc3ccc(F)cc3)cc2c1)[C@H]1NCC[C@@H]1O` [Example 110, (2S,3S)—N-((2-(3-(4-Fluorophenoxy)propyl)benzofuran-5-yl)methyl)-3-hydroxypyrrolidine-2-carboxamide]: the IC50 is 5200 nM.

Take `O=C(NCc1ccc(-n2cc(CCc3ccc(F)cc3)nn2)cc1)[C@H]1NCC[C@@H]1O` [Example 68, (2S,3S)—N-(4-(4-(4-Fluorophenethyl)-1H-1,2,3-triazol-1-yl)benzyl)-3-hydroxypyrrolidine-2-carboxamide]: the IC50 stood at 7300 nM.
